Assay results taken from patent publication US8933037B2, “Methods involving PDGFRBETA inhibitors” (Medizinische Universitat Wien, priority 2009, dated 2015).
“Also recorded” adds a separate entry of the source.

How the values were obtained:
Karpas-299 lymphomas = settings: cited from earlier work
CD30 = settings: cited from earlier work
[1] = system: human ALK positive ALCL cell lines; settings: cited from earlier work
417 cells = assay: Alamar Blue assay (apoptosis), 417 cells; format: cell-based, mouse
Method: (§1) Apoptosis rates were measured by Alamar Blue assays. The active ingredient of Alamar Blue is resazurin, a non-fluorescent dark blue indicator dye. It is able to permeate cells and is converted to resorufin, a fluorescent, bright red dye, in a reduction reaction by living (metabolically active) cells. The produced fluorescence is proportional to the number of metabolically active cells.
(§2) We incubated SR-786 and 417 cells treated with 0-20 μM imatinib with Alamar Blue for one hour at 37 degrees Celsius.

[2] = system: murine NPM-ALK and PDGFRB positive cell line 417; assay: Cell number after three days culture with inhibitor, cell line 417; settings: different concentrations, three days in RPMI medium
NPM-ALK = biological target: T1, NPM-ALK (Homo sapiens, UniProt Q9UM73); settings: cited from earlier work
T1 construct: the other entry of the earlier key: NPM1 (P06748, Nucleophosmin)

SR-786 cells = assay: Alamar Blue assay (apoptosis), SR-786 cells; format: cell-based, human
Method: as §1, §2

[3] = system: murine NPM-ALK positive cell line CD4-417 tumors; assay: Murine xenograft model, CD4-417 cells in flank of SCID mice
[4] = system: human NPM-ALK positive and PDGFRB negative cell line SR-786; assay: Cell number after three days culture with inhibitor, cell line SR-786; settings: different concentrations, three days in RPMI medium
HD and ALCL = settings: cited from earlier work
human ACLC/HD-cell lines = settings: cited from earlier work

T1 sequence (Q9UM73 with tags, fused parts or gaps): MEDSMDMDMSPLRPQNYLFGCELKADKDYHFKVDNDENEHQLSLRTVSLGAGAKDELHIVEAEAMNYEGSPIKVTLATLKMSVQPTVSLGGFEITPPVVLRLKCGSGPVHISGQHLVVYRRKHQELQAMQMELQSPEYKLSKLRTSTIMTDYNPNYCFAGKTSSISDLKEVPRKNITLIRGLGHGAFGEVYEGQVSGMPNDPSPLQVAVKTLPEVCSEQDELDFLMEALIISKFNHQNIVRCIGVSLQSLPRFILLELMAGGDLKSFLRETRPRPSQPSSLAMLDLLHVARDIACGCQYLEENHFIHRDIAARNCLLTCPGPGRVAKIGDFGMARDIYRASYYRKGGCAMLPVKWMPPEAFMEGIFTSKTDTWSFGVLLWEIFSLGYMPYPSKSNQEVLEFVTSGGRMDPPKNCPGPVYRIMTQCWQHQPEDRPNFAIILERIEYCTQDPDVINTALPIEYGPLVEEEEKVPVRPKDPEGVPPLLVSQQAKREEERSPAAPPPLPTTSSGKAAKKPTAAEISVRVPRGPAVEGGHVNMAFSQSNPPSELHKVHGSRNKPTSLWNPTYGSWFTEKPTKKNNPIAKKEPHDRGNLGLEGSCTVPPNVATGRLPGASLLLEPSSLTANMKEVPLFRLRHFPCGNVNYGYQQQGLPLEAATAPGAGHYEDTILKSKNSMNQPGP

COc1cc(N2CCC(N3CCN(C)CC3)CC2)ccc1Nc1ncc(Cl)c(Nc2ccccc2S(=O)(=O)C(C)C)n1 [NVP-TAE684]
established Karpas-299 lymphomas in vivo (Karpas-299 lymphomas): induced regression
lymphomagenesis in two independent models of ALK-positive ALCL (Karpas-299 lymphomas; in vivo): suppress lymphomagenesis
CD30 expression (CD30): induced down-regulation

Cc1ccc(NC(=O)c2ccc(CN3CCN(C)CC3)cc2)cc1Nc1nccc(-c2cccnc2)n1 [imatinib, 4-[(4-methylpiperazin-1-yl)methyl]-N-[4-methyl-3-[(4-pyridin-3-ylpyrimidin-2-yl)amino]phenyl]benzamide]
effect on ALCL cell lines [1]: unable to show effects
conversion of resazurin to resorufin, 417 cells at 0-10 μM (417 cells; 0-10 μM, Alamar Blue one hour at 37 degrees Celsius): responded similar to SR-786 cells
conversion of resazurin to resorufin (color change), 417 cells at 20 μM (417 cells; 20 μM, Alamar Blue one hour at 37 degrees Celsius): not able to induce the color change
apoptosis by Alamar Blue, 417 cells at 20 μM (417 cells; 20 μM, three days after treatment): strongly increased; also recorded: high apoptosis
apoptosis by Alamar Blue, 417 cells, dose dependence (417 cells; in vitro, 0-20 μM): increased apoptosis rates; also recorded: dose dependent apoptosis
cell number (antiproliferative effect), cell line 417 [2]: increasingly impaired; also recorded: strongly react; also recorded: reduced cell numbers; also recorded: dose dependent reduction in cell number
binding to ALK (NPM-ALK): unable to bind ALK
sensitivity of NPM-ALK to imatinib treatment (NPM-ALK): insensitive
conversion of resazurin to resorufin, SR-786 cells (SR-786 cells; 0-20 μM, Alamar Blue one hour at 37 degrees Celsius): comparable rate, regardless of imatinib concentrations
apoptosis by Alamar Blue, SR-786 cells (SR-786 cells; up to 20 μM, three days): unaffected

Cc1cn(-c2cc(NC(=O)c3ccc(C)c(Nc4nccc(-c5cccnc5)n4)c3)cc(C(F)(F)F)c2)cn1 [nilotinib, 4-methyl-N-[3-(4-methyl-1H-imidazol-1-yl)-5-(trifluoromethyl)phenyl]-3-[(4-pyridin-3-ylpyrimidin-2-yl)amino]benzamide]
tumor weight vs untreated control tumors ([3]; after 6 days of treatment): drastically reduced
tumor size reduction ([3]; nilotinib treatment, xenografted mice): more than 59%
cell number / proliferation rates, cell line SR-786 [4]: remain unaffected
cell number (antiproliferative effect), cell line 417 [2]: strongly react; also recorded: dose dependent reduction in cell number

CNC(=O)c1cc(Oc2ccc(NC(=O)Nc3ccc(Cl)c(C(F)(F)F)c3)cc2)ccn1 [sorafenib, 4-[4-[[4-chloro-3-(trifluoromethyl)phenyl]carbamoylamino]phenoxy]-N-methyl-pyridine-2-carboxamide]
in vivo treatment of HD and ALCL (HD and ALCL): not effective
apoptosis in human ACLC/HD-cell lines (human ACLC/HD-cell lines): able to induce apoptosis
